Laboratory results: patent US8309535B2, “Compositions and methods to treat recurrent medical conditions” (priority 2003, dated 2012)
Structures can show the parent of a compound that is named as a salt.

Columns and labels:
[1] = test system: subjects having specific phobias; conditions: cited from earlier work
[2] = cited from earlier work
[3] = test system: subjects on chronic dosing schedules (chronically ill with tuberculosis); conditions: 500-1000 mg/day, side effects correlate with dosage amount; cited from earlier work
[4] = test system: subject with paralytic sexual performance anxiety; conditions: subject unresponsive to purely behavioral interventions; cited from earlier work
[5] = test system: subject afflicted with recurring neuropathic pain; assay: Example 1: treatment of a subject with recurring neuropathic pain; format: in vivo, human
Procedure: After seven days, the dose of amitriptyline was doubled to 20 mg.

## N[C@@H]1CON=C1O [DCS, D-cycloserine]
[1]; DCS in conjunction with psychotherapy, psychotherapy alone required an average of eight sessions
  average number of psychotherapy sessions to reach a clinical cure: two
[1]; DCS with cognitive behavioral therapy sessions, phobic disorders
  fewer therapy sessions needed to reach clinical cure: 75%
[2]; after dosing
  time of peak blood levels after dosing: 3 to 8 h
[2]; in vivo
  half-life: 10 h
[3]
  infrequent side effects: drowsiness, headache, confusion, tremor, vertigo, and memory difficulties, paresthesias, and seizure

## CCCc1nn(C)c2c(=O)[nH]c(-c3cc(S(=O)(=O)N4CCN(C)CC4)ccc3OCC)nc12 [sildenafil]
[4]
  response to pharmaceutical treatment: responded to pharmaceutical treatment

## CN(C)CCC=C1c2ccccc2CCc2ccccc21 [amitriptyline hydrochloride]
[5]; 10 mg per day for seven days
  effect on pain: little effect on the pain
[5]; 20 mg per day, after two days on the higher dose
  effect on pain: substantially subsided
